Columns and labels:
melatonin = assay: Evaluation of melatonin secretion promoting effect: melatonin concentration in plasma during 24 weeks of oral ingestion; format: in vivo, human; conditions: for Change rate (24 weeks-0 weeks) of melatonin concentration in the plasma: mean ± SD
Method: In order to confirm a change in the melatonin quantity before and after ingestion of the nicotinamide mononucleotide, a test was conducted on healthy males and females aged 50 to 70 years.
As a sample of Working Example 1, a capsule formulation containing the nicotinamide mononucleotide and starch (100 mg (low dose) and 200 mg (high dose) of the nicotinamide mononucleotide in 4 capsules) (manufactured by SHINKOWA PHARMACEUTICAL Co., Ltd.) was used.
(§1) Each group consisting of five healthy males and females aged 50 to 70 years in an unbiased age group ingested the above low dose capsule formulation once a day by 4 capsules for 24 weeks (total 10 subjects, a low dose group: 100 mg/daily ingestion). On the other hand, each group consisting of five healthy males and females aged 50 to 70 years in the unbiased age group ingested the above high dose capsule formulation once a day by 4 capsules for 24 weeks (total 10 subjects, a high dose group: 200 mg/daily ingestion). In order to conduct appropriate evaluations, those who had been regularly using medical products for chronic diseases, those who had been consuming healthy foods that may affect clinical research, and those who were currently participating in other clinical researches or clinical trials, or had participated in other clinical researches or clinical trials within the last three months were excluded from the subject for the evaluation. The capsule formulations were ingested at 10 am (between meals and fasting state) together with water or lukewarm water (oral administration).
Measurement of the melatonin quantity in plasma was conducted by requesting the measurement to an external public organization according to a usual method. FIGS. 2a to 2c indicates transitions of the melatonin concentration (pg/ml) in the plasma for 24 weeks. FIG. 2a represents the transitions of the whole subjects; FIG. 2b represents the transitions of the male subjects; FIG. 2c represents the transitions of the female subjects. FIGS. 3a to 3c indicates change rates (%) of the blood melatonin concentration up to 24 weeks when the nicotinamide mononucleotide was orally administered to the subjects for 24 weeks. FIG. 3a represents the change rates of the whole subjects; FIG. 3b represents the change rates of the male subjects; FIG. 3c represents the change rates of the female subjects. Further, Table 1 indicates the numerical values of the melatonin concentration (pg/ml) in the plasma before the ingestion of the nicotinamide mononucleotide (0 weeks) and after the ingestion of the nicotinamide mononucleotide (24 weeks). In addition, the numerical values represent mean values ±standard deviation.

[1] = Safety observation of the subjects during 24 weeks of ingestion (complaints, stool abnormality); format: in vivo, human; conditions: healthy males and females aged 50 to 70, 100 or 200 mg/daily oral, ingestion for 24 weeks
Method: as §1

Structure (SMILES): NC(=O)c1ccc[n+]([C@@H]2O[C@H](COP(=O)([O-])O)[C@@H](O)[C@H]2O)c1 [nicotinamide mononucleotide]
- Change rate (24 weeks-0 weeks) of melatonin concentration in the plasma (melatonin; female subjects, high dose group (200 mg/daily, oral)): 6.03 ± 5.90 pg/mL
- Change rate (24 weeks-0 weeks) of melatonin concentration in the plasma (melatonin; female subjects, low dose group (100 mg/daily, oral)): 2.21 ± 3.19 pg/mL
- effect of ingestion on melatonin concentrations in plasma (FIGS. 2a-2c, 3a-3c) (melatonin; healthy males and females aged 50 to 70, 100 or 200 mg/daily oral, up to 24 weeks): increased the melatonin concentrations in plasma at the high change rates
- Change rate (24 weeks-0 weeks) of melatonin concentration in the plasma (melatonin; male subjects, high dose group (200 mg/daily, oral)): 2.86 ± 3.10 pg/mL
- Change rate (24 weeks-0 weeks) of melatonin concentration in the plasma (melatonin; male subjects, low dose group (100 mg/daily, oral)): 3.44 ± 3.57 pg/mL
- melatonin concentration in the plasma after ingestion compared to before ingestion, statistical significance (melatonin; whole subjects, both the low dose group and the high dose group, 24 weeks, p<0.05): a significant difference was observed
- Change rate (24 weeks-0 weeks) of melatonin concentration in the plasma (melatonin; whole subjects, high dose group (200 mg/daily, oral)): 4.45 ± 4.75 pg/mL
- Change rate (24 weeks-0 weeks) of melatonin concentration in the plasma (melatonin; whole subjects, low dose group (100 mg/daily, oral)): 2.82 ± 3.26 pg/mL
- unidentified complaints (abdominal pain, nausea, vomiting, headache) or stool abnormality [1]: did not show any unidentified complaint

Source: patent US20200268632A1, “ANTI-AGING AGENT AND ANTI-AGING METHOD” (priority 2017, published 2020)
